Measurements taken from patent publication US5514694A, “Peptidyl ketoamides” (Georgia Tech Research Corp, priority 1993, dated 1996).
Where two headings read alike, the source gives them in different places.

How the values were obtained:
Format in all cases: biochemical
calpain II from rabbit = assay: Calpain II inhibition, Suc-Leu-Tyr-AMC hydrolysis (KI); conditions: read-out: KI Cal II
Procedure: (§1) HEPES, heparin, and A23187 were obtained from Calbiochem. Suc-Leu-Tyr-AMC and chromogenic substrates were obtained from Sigma. Calpain I was purified from human erythrocytes according to the method of Kitahara (Kitahara et al., J. Biochem. 95, 1759-1766) omitting the Blue-Sepharose step. Calpain II from rabbit muscle and cathepsin B were purchased from Sigma. Papain was purchased from Calbiochem.
(§2) Peptide α-ketoamides were assayed as reversible enzyme inhibitors. Various concentrations of inhibitors in Me2 SO were added to the assay mixture which contained buffer and substrate. The reaction was started by the addition of the enzyme and the hydrolysis rates were followed spectrophotometrically or fluorimetrically.
(§3) Calpain I from human erythrocytes and calpain II from rabbit were assayed using Suc-Leu-Tyr-AMC Sasaki et al., J. Biol. Chem. 259, 12489-12494 (1984); incorporated herein by reference!, and the AMC (7-amino-4-methylcoumarin) release was followed fluorimetrically (excitation at 380 nm, and emmision at 460 nm). Calpains were assayed in 25 mM Tris pH=8.0, 10 mM CaC12. Fluorescence was followed using a Gilson FL-1A fluorometer or a Perkin-Elmer 203 Fluorescence spectrometer. Cathepsin B was assayed in 20 mM sodium acetate pH=5.2, 0.5 mM dithiothreitol using Bz-Phe-Val-Arg-p-nitroanilide as substrate. Alternately, cathepsin B was assayed with Z-Arg-Arg-AFC Barrett and Kirschke, Methods Enzymol. 80, 535-561 (1981); incorporated herein by reference!, and the AFC (7-amino-4-trifluoromethylcoumarin) release was followed fluorimetrically (excitation at 400 nm and emmision at 505 nm). Papain was assayed in 100 mM KPO4, 1 mM EDTA, 2.5 mM cysteine pH=6.0 using Bz-Arg-AMC or Bz-Arg-NA Kanaoka et al., Chem. Pharm. Bull. 25, 3126-3128 (1977); incorporated herein by reference! as a substrate. The AMC (7-amino-4-methylcoumarin) release was followed fluorimetrically (excitation at 380 nm, and emmision at 460 nm). Enzymatic hydrolysis rates were measured at various substrate and inhibitor concentrations, and KI values were determined by either Lineweaver-Burk plots or Dixon plots.
(§4) A 0.1M Hepes, 0.5M NaCl, pH 7.5 buffer was utilized for human leukocyte elastase (HLE), porcine pancreatic elastase (PPE), chymotrypsin and cathepsin G. A 0.1 Hepes, 0.01 M CaCl2, pH 7.5 buffer was utilized for trypsin, plasmin, and coagulation enzymes. A 50 mM Tris.HCl, 2 mM EDTA, 5 mM cysteine, pH 7.5 was used as a buffer for papain. A 88 mM KH2 PO4, 12 mM Na2 HPO4, 1.33 mM EDTA, 2.7 mM cysteine, pH 6.0 solution was used as a buffer for cathepsin B. A 20 mM Hepes, 10 mM CaCl2, 10 mM mercatoethanol, pH 7.2 buffer was utilized for calpain I and calpain II.

[1] = molecular target: T1, Calpain I from human erythrocytes (Homo sapiens, UniProt P07384); assay: Calpain I inhibition, Suc-Leu-Tyr-AMC hydrolysis (KI); conditions: for Ki: read-out: KI Cal I
T1 construct: Calpain I was purified from human erythrocytes; from tissue; host or cells: human erythrocytes
T1 sequence (P07384 1-714): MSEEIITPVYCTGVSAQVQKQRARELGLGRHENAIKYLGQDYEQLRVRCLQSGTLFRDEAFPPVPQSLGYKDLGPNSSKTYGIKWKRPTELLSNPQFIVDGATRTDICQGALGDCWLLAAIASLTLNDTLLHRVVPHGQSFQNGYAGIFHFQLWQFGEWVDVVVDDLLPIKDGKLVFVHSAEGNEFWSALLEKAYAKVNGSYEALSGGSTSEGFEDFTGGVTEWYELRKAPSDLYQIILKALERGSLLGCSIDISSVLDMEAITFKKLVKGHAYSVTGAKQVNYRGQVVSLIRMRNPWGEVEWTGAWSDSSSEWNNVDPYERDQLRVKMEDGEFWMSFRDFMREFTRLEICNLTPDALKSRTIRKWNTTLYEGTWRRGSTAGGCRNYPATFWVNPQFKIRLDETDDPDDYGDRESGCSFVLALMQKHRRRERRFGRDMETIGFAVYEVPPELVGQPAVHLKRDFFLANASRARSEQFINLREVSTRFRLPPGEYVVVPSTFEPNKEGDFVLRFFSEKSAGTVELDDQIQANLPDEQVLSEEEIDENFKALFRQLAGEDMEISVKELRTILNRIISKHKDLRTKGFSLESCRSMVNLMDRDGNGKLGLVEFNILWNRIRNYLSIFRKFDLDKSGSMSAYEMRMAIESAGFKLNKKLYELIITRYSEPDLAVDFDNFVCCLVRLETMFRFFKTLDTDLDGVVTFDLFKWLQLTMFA
T1 sequence (P04632 1-268 partner): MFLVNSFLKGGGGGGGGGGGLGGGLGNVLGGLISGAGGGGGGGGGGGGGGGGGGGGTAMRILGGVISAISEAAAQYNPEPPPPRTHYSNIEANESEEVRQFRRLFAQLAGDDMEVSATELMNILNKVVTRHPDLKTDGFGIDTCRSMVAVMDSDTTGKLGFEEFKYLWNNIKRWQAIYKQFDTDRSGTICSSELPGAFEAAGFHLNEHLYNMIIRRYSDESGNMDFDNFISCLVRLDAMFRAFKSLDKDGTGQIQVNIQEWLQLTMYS
Procedure: as §1, §2, §3, §4

[2] = molecular target: T2, human leukocyte elastase (HLE) (Homo sapiens, UniProt P08246); assay: HLE inhibition, MeO-Suc-Ala-Ala-Pro-Val-NA hydrolysis; conditions: Table 4, Z-Leu--AA--CONH-R
T2 sequence (P08246 30-267): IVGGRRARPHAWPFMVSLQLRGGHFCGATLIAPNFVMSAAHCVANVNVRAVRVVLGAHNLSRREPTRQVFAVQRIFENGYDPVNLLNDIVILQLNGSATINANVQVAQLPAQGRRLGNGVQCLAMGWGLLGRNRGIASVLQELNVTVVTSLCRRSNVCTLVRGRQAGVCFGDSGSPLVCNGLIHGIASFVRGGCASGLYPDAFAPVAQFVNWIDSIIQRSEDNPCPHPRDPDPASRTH
Procedure: as §2, §4
HLE and PPE were assayed with MeO-Suc-Ala-Ala-Pro-Val-NA and Suc-Ala-Ala-Ala-NA, respectively Nakajima et al., J. Biol. Chem. 254, 4027-4032 (1979); incorporated herein by reference!. Human leukocyte cathepsin G and chymotrypsin Aα were assayed with Suc-Val-Pro-Phe-NA Tanaka et al., Biochemistry 24, 2040-2047 (1985); incorporated herein by reference!. The hydrolysis of peptide 4-nitroanilides was measured at 410 nm ε410 =8800 M^-1 cm^-1; Erlanger et al., Arch. Biochem. Biophys. 95, pp 271-278 (1961); incorporated herein by reference!. Trypsin, thrombin, human plasma kallikrein, porcine pancreatic kallikrein, human factor XIa, and human plasmin were assayed with Z-Arg-SBzl or Z-Gly-Arg-SBu-i McRae et al., Biochemistry 20, 7196-7206 (1981); incorporated herein by reference!. All peptide thioester hydrolysis rates were measured with assay mixtures containing 4,4'-dithiodipyridine ε324 =19800 M^-1 cm^-1; Grasetti & Murray, Arch. Biochem. Biophys. 119, 41-49 (1967); incorporated herein by reference!.

cathepsin B = molecular target: T3, cathepsin B (Homo sapiens, UniProt P07858); assay: Cathepsin B inhibition (KI); conditions: Table 1, Z-Leu--AA--CONHR; read-out: KI Cat B
T3 construct: purchased Sigma
Procedure: as §1, §2, §3, §4

[3] = Table 2, Z-Leu--AA--CONH--CH2 CH(OH)-R

CCC(NC(=O)C(CC(C)C)NC(=O)C(c1ccccc1)c1ccccc1)C(=O)C(=O)NCc1ccccn1 (stereo not drawn) [Ph2 CH-CO-Leu-Abu-CONH-CH2 -2-pyridyl, Ph2 CHCO-Leu-Abu-CONH-2-CH2 -Pyridyl]
Ki (calpain II from rabbit; Table 3, M1 CO-Leu--AA--CONH-R): 90 nM

CC(C)CC(NC(=O)C(c1ccccc1)c1ccccc1)C(=O)NC(Cc1ccccc1)C(=O)C(=O)NCC(O)c1ccccc1 (stereo not drawn) [Ph2 CH-CO-Leu-Phe-CONH-CH2 CH(OH)Ph, Ph2 CHCO-Leu-Phe-CONH--CH2 CH(OH)Ph]
Ki (calpain II from rabbit; Table 3, M1 CO-Leu--AA--CONH-R): 730 nM | Ki ([1]; Table 3, M1 CO-Leu--AA--CONH-R): 10000 nM

CCC(NC(=O)C(CC(C)C)NC(=O)OCc1ccccc1)C(=O)C(=O)NCCc1ccccn1 (stereo not drawn) [Z-Leu-Abu-CONH-(CH2)2 -2-pyridyl, Z-Leu-Abu-CONH--(CH2)2 -2-Pyridyl]
Ki (calpain II from rabbit; Table 1, Z-Leu--AA--CONHR): 470 nM | Ki ([1]; Table 1, Z-Leu--AA--CONHR): 410 nM

CCC(NC(=O)C(CC(C)C)NC(=O)OCc1ccccc1)C(=O)C(=O)NCCc1c[nH]c2ccccc12 (stereo not drawn) [Z-Leu-Abu-CONH-(CH2)2 -3-indolyl, Z-Leu-Abu-CONH--(CH2)2 -3-Indolyl]
IC50 [2]: 48000 nM | Ki (calpain II from rabbit; Table 1, Z-Leu--AA--CONHR): 50 nM | Ki ([1]; Table 1, Z-Leu--AA--CONHR): 300 nM

CCC(NC(=O)[C@H](CC(C)C)NC(=O)OCc1ccccc1)C(=O)C(=O)NCCN1CCOCC1 (stereo partly drawn) [Z-Leu-Abu-CONH-(CH2)2 -4-morpholinyl, Z-Leu-Abu-CONH--(CH2)2 -4-Morpholinyl]
Ki (cathepsin B): 2500 nM | Ki ([1]; Table 1, Z-Leu--AA--CONHR): 1000 nM

CCC(NC(=O)C(CC(C)C)NC(=O)OCc1ccccc1)C(=O)C(=O)NCCNC(=O)CCCCC1SCC2NC(=O)NC21 (stereo not drawn) [Z-Leu-Abu-CONH-(CH2)2 NH-biotinyl, Z-Leu-Abu-CONH--(CH2)2NH-Biotinyl]
IC50 [2]: 38000 nM | Ki ([1]; Table 1, Z-Leu--AA--CONHR): 650 nM

CC[C@H](NC(=O)[C@H](CC(C)C)NC(=O)OCc1ccccc1)C(=O)C(=O)NCCOCCO [Z-Leu-Abu-CONH-(CH2)2 O(CH2)2 OH, Z-Leu-Abu-CONH--(CH2)2 O(CH2)2 OH]
Ki (cathepsin B): 2000 nM

CCC(NC(=O)C(CC(C)C)NC(=O)OCc1ccccc1)C(=O)C(=O)NCC(O)c1ccc(OCc2ccccc2)c(OCc2ccccc2)c1 (stereo not drawn) [Z-Leu-Abu-CONH--CH2 CH(OH)C6 H3 (3,4-(OCH2 Ph)2)]
IC50 [2]: 64000 nM | Ki [1, 3]: 230 nM

CCC(NC(=O)C(CC(C)C)NC(=O)OCc1ccccc1)C(=O)C(=O)NCC(O)c1cccc(Oc2cccc(C(F)(F)F)c2)c1 (stereo not drawn) [Z-Leu-Abu-CONH--CH2 CH(OH)C6 H4 -3-OC6 H4 (3-CF3)]
IC50 [2]: 30000 nM | Ki [1, 3]: 70 nM

CCC(NC(=O)C(CC(C)C)NC(=O)OCc1ccccc1)C(=O)C(=O)NCc1nc2c(c(=O)n(C)c(=O)n2C)n1C (stereo not drawn) [Z-Leu-Abu-CONH-CH2 -8-caffeine, Z-Leu-Abu-CONH--CH2 -8-Caffeine]
IC50 [2]: 156000 nM | Ki ([1]; Table 1, Z-Leu--AA--CONHR): 32000 nM

CCC(NC(=O)C(CC(C)C)NC(=O)OCc1ccccc1)C(=O)C(=O)NCC(O)c1cccc(Oc2ccccc2)c1 (stereo not drawn) [Z-Leu-Abu-CONH-CH2 CH(OH)-C6 H4 (3-OPh), Z-Leu-Abu-CONH--CH2 CH(OH)C6 H4 (3-OPh)]
IC50 [2]: 45000 nM | Ki [1, 3]: 900 nM

CCC(NC(=O)C(CC(C)C)NC(=O)OCc1ccccc1)C(=O)C(=O)NCC(O)c1ccc(OC)cc1 (stereo not drawn) [Z-Leu-Abu-CONH-CH2 CH(OH)-C6 H4 (4-OCH3), Z-Leu-Abu-CONH--CH2 CH(OH)C6 H4 (4-OCH3)]
IC50 [2]: 32000 nM | Ki [1, 3]: 240 nM

CCC(NC(=O)C(CC(C)C)NC(=O)OCc1ccccc1)C(=O)C(=O)NCC(O)c1ccc(Oc2ccccc2)cc1 (stereo not drawn) [Z-Leu-Abu-CONH-CH2 CH(OH)-C6 H4 (4-OPh), Z-Leu-Abu-CONH--CH2 CH(OH)C6 H4 (4-OPh)]
IC50 [2]: 28000 nM | Ki [1, 3]: 100 nM

CCCC(NC(=O)C(CC(C)C)NC(=O)OCc1ccccc1)C(=O)C(=O)NCc1ccccn1 (stereo not drawn) [Z-Leu-Nva-CONH-CH2 -2-pyridyl, Z-Leu-Nva-CONH--CH2 -2-Pyridyl]
Ki (calpain II from rabbit; Table 1, Z-Leu--AA--CONHR): 120 nM | inhibition of calpain I, in words [1]: best inhibitor of calpain I | Ki ([1]; Table 1, Z-Leu--AA--CONHR): 19 nM

CCCC(NC(=O)C(CC(C)C)NC(=O)OCc1ccccc1)C(=O)C(=O)NCC(O)c1ccccc1 (stereo not drawn) [Z-Leu-Nva-CONH-CH2 CH(OH)-Ph, Z-Leu-Nva-CONH--CH2 CH(OH)Ph]
Ki (calpain II from rabbit; [3]): 11000 nM | Ki [1, 3]: 7800 nM

Z-Leu-Abu-CONH--(CH2)2 C6 H4 (4-OH) [Z-Leu-Abu-CONH-(CH2)2 C6 H4 (4-OH)]
Ki (calpain II from rabbit; Table 1, Z-Leu--AA--CONHR): 60 nM | Ki ([1]; Table 1, Z-Leu--AA--CONHR): 380 nM

Z-Leu-Abu-CONH--CH2 CH(OH)C6 F5 [Z-Leu-Abu-CONH-CH2 CH(OH)-C6 F5]
IC50 [2]: 44000 nM | inhibition of calpain I, in words [1]: best inhibitor for calpain I | Ki [1, 3]: 50 nM
